Assay results as given in PubChem BioAssay (NCI).
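Grown in 96-well plates, cells were treated for 48 hours with each compound at five concentrations. Insufficient inhibition: endpoint recorded as highest concentration tested. Here, GI50 denotes the concentration required for 50% inhibition of growth. TGI marks complete inhibition of growth.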 *1 amine or outer side, *2 acyl side, *3 side chain or, on linkers, in order; H or OH if unused. Where a SMILES comes first, the peptide text is derived from it. [ ]: non-standard residue; d: D form. X33 = C=CCC(O[*:1])C(=O)[*:2]; NMeV = CN[CH](C(=O)O)C(C)C; NMeA = CN[CH](C)C(=O)O; βAla = NCCC(=O)O

Tests used:
Assay in all cases: NCI-60 cell line screen, 48 h
NCI-H460 lung = tested on: NCI-H460 lung
OVCAR-4 ovarian = tested on: OVCAR-4 ovarian
KM12 colon = tested on: KM12 colon
UACC-62 melanoma = tested on: UACC-62 melanoma
UO-31 renal = tested on: UO-31 renal
MCF7 breast = tested on: MCF7 breast
SNB-75 CNS = tested on: SNB-75 CNS
HCC-2998 colon = tested on: HCC-2998 colon
HCT-116 colon = tested on: HCT-116 colon
OVCAR-3 ovarian = tested on: OVCAR-3 ovarian
OVCAR-5 ovarian = tested on: OVCAR-5 ovarian
MDA-N = tested on: MDA-N

SMILES | TGI (NCI-H460 lung) [µM] | TGI (OVCAR-4 ovarian) [µM] | TGI (KM12 colon) [µM] | TGI (UACC-62 melanoma) [µM] | TGI (UO-31 renal) [µM] | TGI (MCF7 breast) [µM] | TGI (SNB-75 CNS) [µM] | TGI (HCC-2998 colon) [µM] | TGI (HCT-116 colon) [µM] | TGI (OVCAR-3 ovarian) [µM] | TGI (OVCAR-5 ovarian) [µM] | TGI (MDA-N) [µM] | GI50 (NCI-H460 lung) [µM] | GI50 (UACC-62 melanoma) [nM] | GI50 (UO-31 renal) [nM] | GI50 (MCF7 breast) [nM] | GI50 (SNB-75 CNS) [nM] | GI50 (HCC-2998 colon) [µM] | GI50 (OVCAR-3 ovarian) [nM] | GI50 (OVCAR-5 ovarian) [µM]
O=C(NN1C(=O)CSC1c1ccc(C(F)(F)F)cc1)c1ccncc1 (stereo not drawn) | > 100 | > 100 | > 100 | > 100 | > 100 | > 100 | > 100 | > 100 | > 100 | > 100 | > 100 | – | – | – | – | – | – | – | – | –
C/C(=N\NC(=S)Nc1ccc(C)cc1)c1nc2ncccc2[nH]1 | 13.6 | 16.7 | 32 | 15 | 4.05 | 13.5 | 22.5 | 20.2 | 14.3 | 9.71 | 18.6 | 23.8 | – | – | – | – | – | – | – | –
COc1ccc(-c2c3c(nc4nc(SC)nc(SC)c24)CCCC3)cc1OC | > 100 | – | > 100 | > 100 | > 100 | > 100 | > 100 | > 100 | > 100 | > 100 | > 100 | > 100 | – | – | – | – | – | – | – | –
Nc1nc(N)c2[nH]cnc2n1 (tested in a mixture with another compound) | 63.4 | > 100 | > 100 | 24.9 | 58.4 | 21.7 | > 100 | – | 41.8 | 74.4 | > 100 | > 100 | – | – | – | – | – | – | – | –
NC(=S)N/N=C1\c2ccccc2CCC1CCC1(O)CCc2ccccc2C1=O (stereo not drawn) | 32.1 | > 100 | > 100 | 31.7 | 29.4 | 46.4 | 45 | – | 40.2 | 36.3 | 74.2 | 58.4 | – | – | – | – | – | – | – | –
CCc1nnc(-c2nsc3ccccc23)s1 | > 100 | > 100 | > 100 | > 100 | > 100 | – | > 100 | > 100 | > 100 | > 100 | > 100 | – | – | – | – | – | – | – | – | –
COc1cc2c(cc1OC)C(C)N(C)c1c-2c(OC(C)=O)cc2cc(OC)c(OC)cc12 (stereo not drawn) | 27.6 | > 45.4 | 34.1 | 39.3 | > 92.1 | 40.2 | > 79 | > 60.1 | 35.2 | > 100 | > 100 | 38.3 | – | – | – | – | – | – | – | –
O=S(=O)(O)c1ccc2c(N=Nc3ccc(F)cc3)c(O)c(S(=O)(=O)O)cc2c1 | – | > 100 | > 100 | > 100 | > 100 | – | > 100 | – | > 100 | > 100 | > 100 | > 100 | – | – | – | – | – | – | – | –
C=CCC1OC(=O)CCNC(=O)C(C)N(C)C(=O)C(C(C)C)N(C)C(=O)C(C(C)CC)NC(=O)C2CCCN2C1=O (stereo not drawn) (cyclo([X33]PI[NMeV][NMeA][βAla]); configuration not given here) | > 100 | > 100 | > 100 | 7.43 | 47.5 | > 100 | > 100 | > 100 | > 100 | > 100 | > 100 | > 100 | – | – | – | – | – | – | – | –
C[C@]12CCc3sc(Nc4ccc(O)cc4)nc3C1=CC[C@@H]1[C@@H]2CC[C@]2(C)C(=O)CC[C@@H]12 | 10.5 | – | – | 4.02 | 2.9 | 4.26 | > 100 | > 100 | – | 3.38 | > 100 | – | 3.01 | 1760 | 1540 | 1660 | 2760 | 4.11 | 1710 | 3.91
O=C(O)CC1(CC(=O)O)Nc2ccccc2SC1=O | > 100 | > 100 | > 100 | > 100 | > 100 | > 100 | > 100 | > 100 | > 100 | > 100 | > 100 | > 100 | – | – | – | – | – | – | – | –
CCSc1nc(=[N+]2CCCC2)ss1 | > 100 | > 100 | > 100 | 23.9 | > 100 | 41.1 | > 96.6 | > 100 | > 86.9 | 48.2 | > 100 | > 100 | – | – | – | – | – | – | – | –
Clc1nc(NCCc2ccccc2)c2ncn(-c3ccccc3)c2n1 | 33.7 | 42.1 | 51.3 | 56.7 | 43.1 | 60.8 | 90.4 | 45.5 | 56.4 | 82.2 | > 100 | 40.2 | – | – | – | – | – | – | – | –
Cc1ccc(Nc2nc(NS(=O)(=O)c3cc(C(=O)Nc4ccc(Cl)cc4)c(Cl)cc3S)n[nH]2)cc1 | > 100 | > 100 | > 100 | > 100 | > 100 | > 100 | > 100 | – | > 100 | > 100 | > 100 | > 100 | – | – | – | – | – | – | – | –
O=C1OCC/C1=C/c1ccc(N=Nc2c(O)ccc3ccccc23)cc1 | 47.3 | 37.4 | 22.3 | 56.5 | 37.3 | > 100 | 49.2 | 39.7 | 34.6 | 34.4 | 42.2 | 33.5 | – | – | – | – | – | – | – | –
CN1CCN(c2cc(-c3cc4ccccc4o3)oc(=O)c2C#N)CC1 | > 100 | > 100 | > 100 | – | > 100 | – | > 100 | > 100 | > 100 | – | > 100 | – | – | – | – | – | – | – | – | –
Cc1ccc2c(C)c3ccc4ccccc4c3c[n+]2c1 | 35.2 | 45.4 | 14.6 | 27.4 | > 100 | – | 25.9 | 28.6 | > 89.7 | 38.1 | > 100 | – | – | – | – | – | – | – | – | –
CC1OC1C(=O)C1(O)C(C)C(O)C23OC2(C(O)c2c(O)cccc2C3=O)C1O (stereo not drawn) | 0.565 | 0.0982 | 1.04 | 0.646 | 0.565 | 2.01 | 0.747 | 0.401 | 0.703 | 0.352 | 3.08 | – | – | – | – | – | – | – | – | –
